Series [1] can be described thus: Apparent permeability of the compound across bacterial inner membrane mimic POPE/POPG (6:4) in PBS buffer assessed as membrane retention at pH 7.4 incubated for 5 hrs in presence of 1,1-bis({6-[N'-(cyclopropylmethyl)carbamimidamido]hexyl})-3-{8-[N'-(cyclopropylmethyl)carbamimidamido]octyl}-3-octylurea by PAMPA based UV-Vis spectrophotometric analysis. In kind it is ADME, cell membranes. To be noted: pH 7.4, 5 h.

The nature of series [2]: Apparent permeability of the compound across bacterial inner membrane mimic PC-phospholipids in PBS buffer assessed as membrane retention at pH 7.4 incubated for 5 hrs in presence of 1,3,3-tris(8-carbamimidamidooctyl)-1-{8-[N'-(cyclopropylmethyl)carbamimidamido]octyl}urea trifluoroacetate salt by PAMPA based UV-Vis spectrophotometric analysis. Type of series: ADME, cell membranes. To be noted: pH 7.4, 5 h. (PAMPA measures passive passage across an artificial lipid membrane.)

A short description of series [3]: Apparent permeability of the compound across bacterial inner membrane mimic POPE/POPG (6:4) in PBS buffer assessed as membrane retention at pH 7.4 incubated for 5 hrs in presence of 1,3-bis(8-carbamimidamidooctyl)-1,3-bis({8-[N'-(cyclopropylmethyl)carbamimidamido]octyl})urea by PAMPA based UV-Vis spectrophotometric analysis. In kind it is ADME, cell membranes. To be noted: pH 7.4, 5 h.

Series [4] is described as follows: Apparent permeability of the compound across bacterial inner membrane mimic POPE/POPG (6:4) in PBS buffer assessed as membrane retention at pH 7.4 incubated for 5 hrs in presence of 1,3-bis(8-aminooctyl)-1,3-bis(8- carbamimidamidooctyl)urea trifluoroacetate salt by PAMPA based UV-Vis spectrophotometric analysis. Type of series: ADME, cell membranes. To be noted: pH 7.4, 5 h.

The nature of series [5]: Apparent permeability of the compound across bacterial inner membrane mimic pure POPG in PBS buffer assessed as membrane retention at pH 7.4 incubated for 5 hrs in presence of {8-[N'(cyclopropylmethyl)carbamimidamido]octyl}urea trifluoroacetate salt by PAMPA based UV-Vis spectrophotometric analysis. In kind it is ADME, cell membranes. To be noted: pH 7.4, 5 h.
A short description of series [6]: Apparent permeability of the compound across bacterial inner membrane mimic POPE/POPG (6:4) in PBS buffer assessed as membrane retention at pH 7.4 incubated for 5 hrs in presence of {8-[N'(cyclopropylmethyl)carbamimidamido]octyl}urea trifluoroacetate salt by PAMPA based UV-Vis spectrophotometric analysis. Type of series: ADME, cell membranes. To be noted: pH 7.4, 5 h.

Series [7] in a line: Apparent permeability of the compound across bacterial inner membrane mimic pure POPG in PBS buffer assessed as membrane retention at pH 7.4 incubated for 5 hrs by PAMPA based UV-Vis spectrophotometric analysis. Type of series: ADME, cell membranes. To be noted: pH 7.4, 5 h.
The nature of series [8]: Apparent permeability of the compound across bacterial inner membrane mimic PC-phospholipids in PBS buffer assessed as membrane retention at pH 7.4 incubated for 5 hrs in presence of {8-[N'(cyclopropylmethyl)carbamimidamido]octyl}urea trifluoroacetate salt by PAMPA based UV-Vis spectrophotometric analysis. In kind it is ADME, cell membranes. To be noted: pH 7.4, 5 h.
Series [9] in a line: Apparent permeability of the compound across bacterial inner membrane mimic pure POPG in PBS buffer assessed as membrane retention at pH 7.4 incubated for 5 hrs in presence of 1,1-bis({6-[N'-(cyclopropylmethyl)carbamimidamido]hexyl})-3-{8-[N'-(cyclopropylmethyl)carbamimidamido]octyl}-3-octylurea by PAMPA based UV-Vis spectrophotometric analysis. Type of series: ADME, cell membranes. To be noted: pH 7.4, 5 h.

Series [10] is described as follows: Apparent permeability of the compound across bacterial inner membrane mimic POPE/POPG (6:4) in PBS buffer assessed as membrane retention at pH 7.4 incubated for 5 hrs by PAMPA based UV-Vis spectrophotometric analysis. Type of series: ADME, cell membranes. To be noted: pH 7.4, 5 h.
A short description of series [11]: Apparent permeability of the compound across bacterial inner membrane mimic pure POPG in PBS buffer assessed as membrane retention at pH 7.4 incubated for 5 hrs in presence of 1,3,3-tris(8-carbamimidamidooctyl)-1-{8-[N'-(cyclopropylmethyl)carbamimidamido]octyl}urea trifluoroacetate salt by PAMPA based UV-Vis spectrophotometric analysis. In kind it is ADME, cell membranes. To be noted: pH 7.4, 5 h.

Series [12] in a line: Apparent permeability of the compound across bacterial inner membrane mimic POPE/POPG (6:4) in PBS buffer assessed as membrane retention at pH 7.4 incubated for 5 hrs in presence of 1,3,3-tris(8-carbamimidamidooctyl)-1-{8-[N'-(cyclopropylmethyl)carbamimidamido]octyl}urea trifluoroacetate salt by PAMPA based UV-Vis spectrophotometric analysis. To be noted: pH 7.4, 5 h. Type of series: ADME, cell membranes.

A short description of series [13]: Apparent permeability of the compound across bacterial inner membrane mimic pure POPG in PBS buffer assessed as membrane retention at pH 7.4 incubated for 5 hrs in presence of 1,3-bis(8-aminooctyl)-1,3-bis(8- carbamimidamidooctyl)urea trifluoroacetate salt by PAMPA based UV-Vis spectrophotometric analysis. Type of series: ADME, cell membranes. To be noted: pH 7.4, 5 h.

Series [14] in a line: Apparent permeability of the compound across bacterial inner membrane mimic PC-phospholipids in PBS buffer assessed as membrane retention at pH 7.4 incubated for 5 hrs in presence of 1,3-bis(8-aminooctyl)-1,3-bis(8- carbamimidamidooctyl)urea trifluoroacetate salt by PAMPA based UV-Vis spectrophotometric analysis. In kind it is ADME, cell membranes. To be noted: pH 7.4, 5 h.

The nature of series [15]: Apparent permeability of the compound across bacterial inner membrane mimic PC-phospholipids in PBS buffer assessed as membrane retention at pH 7.4 incubated for 5 hrs in presence of 1,3-bis(8-carbamimidamidooctyl)-1,3-bis({8-[N'-(cyclopropylmethyl)carbamimidamido]octyl})urea by PAMPA based UV-Vis spectrophotometric analysis. Type of series: ADME, cell membranes. To be noted: pH 7.4, 5 h.

Series [16] is described as follows: Apparent permeability of the compound across bacterial inner membrane mimic PC-phospholipids in PBS buffer assessed as membrane retention at pH 7.4 incubated for 5 hrs in presence of 1,1-bis({6-[N'-(cyclopropylmethyl)carbamimidamido]hexyl})-3-{8-[N'-(cyclopropylmethyl)carbamimidamido]octyl}-3-octylurea by PAMPA based UV-Vis spectrophotometric analysis. Type of series: ADME, cell membranes. To be noted: pH 7.4, 5 h.

Series [17] can be described thus: Apparent permeability of the compound across bacterial inner membrane mimic pure POPG in PBS buffer assessed as membrane retention at pH 7.4 incubated for 5 hrs in presence of 1,3-bis(8-carbamimidamidooctyl)-1,3-bis({8-[N'-(cyclopropylmethyl)carbamimidamido]octyl})urea by PAMPA based UV-Vis spectrophotometric analysis. In kind it is ADME, cell membranes. To be noted: pH 7.4, 5 h.

Series [18] can be described thus: Apparent permeability of the compound across bacterial inner membrane mimic PC-phospholipids in PBS buffer assessed as membrane retention at pH 7.4 incubated for 5 hrs by PAMPA based UV-Vis spectrophotometric analysis. In kind it is ADME, cell membranes. To be noted: pH 7.4, 5 h.
A short description of series [19]: Apparent permeability of the compound across bacterial inner membrane mimic PC-phospholipids in PBS buffer at pH 7.4 incubated for 5 hrs by PAMPA based UV-Vis spectrophotometric analysis. Type of series: ADME.
Series [20] can be described thus: Apparent permeability of the compound across bacterial inner membrane mimic pure POPG in PBS buffer at pH 7.4 incubated for 5 hrs by PAMPA based UV-Vis spectrophotometric analysis. In kind it is ADME.
Series [21] in a line: Apparent permeability of the compound across bacterial inner membrane mimic PC-phospholipids in PBS buffer at pH 7.4 incubated for 5 hrs in presence of 1,3,3-tris(8-carbamimidamidooctyl)-1-{8-[N'-(cyclopropylmethyl)carbamimidamido]octyl}urea trifluoroacetate salt by PAMPA based UV-Vis spectrophotometric analysis.
Series [22] in a line: Apparent permeability of the compound across bacterial inner membrane mimic pure POPG in PBS buffer at pH 7.4 incubated for 5 hrs in presence of 1,3,3-tris(8-carbamimidamidooctyl)-1-{8-[N'-(cyclopropylmethyl)carbamimidamido]octyl}urea trifluoroacetate salt by PAMPA based UV-Vis spectrophotometric analysis.
Series [23] is described as follows: Apparent permeability of the compound across bacterial inner membrane mimic POPE/POPG (6:4) in PBS buffer at pH 7.4 incubated for 5 hrs in presence of 1,3-bis(8-aminooctyl)-1,3-bis(8- carbamimidamidooctyl)urea trifluoroacetate salt by PAMPA based UV-Vis spectrophotometric analysis.
Series [24] is described as follows: Apparent permeability of the compound across bacterial inner membrane mimic POPE/POPG (6:4) in PBS buffer at pH 7.4 incubated for 5 hrs in presence of 1,3,3-tris(8-carbamimidamidooctyl)-1-{8-[N'-(cyclopropylmethyl)carbamimidamido]octyl}urea trifluoroacetate salt by PAMPA based UV-Vis spectrophotometric analysis.
A short description of series [25]: Apparent permeability of the compound across bacterial inner membrane mimic POPE/POPG (6:4) in PBS buffer at pH 7.4 incubated for 5 hrs by PAMPA based UV-Vis spectrophotometric analysis. In kind it is ADME.
Series [26] can be described thus: Apparent permeability of the compound across bacterial inner membrane mimic PC-phospholipids in PBS buffer at pH 7.4 incubated for 5 hrs in presence of 1,3-bis(8-aminooctyl)-1,3-bis(8- carbamimidamidooctyl)urea trifluoroacetate salt by PAMPA based UV-Vis spectrophotometric analysis.
A short description of series [27]: Apparent permeability of the compound across bacterial inner membrane mimic pure POPG in PBS buffer at pH 7.4 incubated for 5 hrs in presence of 1,3-bis(8-carbamimidamidooctyl)-1,3-bis({8-[N'-(cyclopropylmethyl)carbamimidamido]octyl})urea by PAMPA based UV-Vis spectrophotometric analysis.
A short description of series [28]: Apparent permeability of the compound across bacterial inner membrane mimic PC-phospholipids in PBS buffer at pH 7.4 incubated for 5 hrs in presence of 1,1-bis({6-[N'-(cyclopropylmethyl)carbamimidamido]hexyl})-3-{8-[N'-(cyclopropylmethyl)carbamimidamido]octyl}-3-octylurea by PAMPA based UV-Vis spectrophotometric analysis.
Series [29] can be described thus: Apparent permeability of the compound across bacterial inner membrane mimic pure POPG in PBS buffer at pH 7.4 incubated for 5 hrs in presence of 1,3-bis(8-aminooctyl)-1,3-bis(8- carbamimidamidooctyl)urea trifluoroacetate salt by PAMPA based UV-Vis spectrophotometric analysis.
A short description of series [30]: Apparent permeability of the compound across bacterial inner membrane mimic pure POPG in PBS buffer at pH 7.4 incubated for 5 hrs in presence of {8-[N'(cyclopropylmethyl)carbamimidamido]octyl}urea trifluoroacetate salt by PAMPA based UV-Vis spectrophotometric analysis.
Series [31] is described as follows: Apparent permeability of the compound across bacterial inner membrane mimic POPE/POPG (6:4) in PBS buffer at pH 7.4 incubated for 5 hrs in presence of {8-[N'(cyclopropylmethyl)carbamimidamido]octyl}urea trifluoroacetate salt by PAMPA based UV-Vis spectrophotometric analysis.
Series [32] in a line: Apparent permeability of the compound across bacterial inner membrane mimic PC-phospholipids in PBS buffer at pH 7.4 incubated for 5 hrs in presence of {8-[N'(cyclopropylmethyl)carbamimidamido]octyl}urea trifluoroacetate salt by PAMPA based UV-Vis spectrophotometric analysis.
Series [33] can be described thus: Apparent permeability of the compound across bacterial inner membrane mimic POPE/POPG (6:4) in PBS buffer at pH 7.4 incubated for 5 hrs in presence of 1,1-bis({6-[N'-(cyclopropylmethyl)carbamimidamido]hexyl})-3-{8-[N'-(cyclopropylmethyl)carbamimidamido]octyl}-3-octylurea by PAMPA based UV-Vis spectrophotometric analysis.
Series [34] in a line: Apparent permeability of the compound across bacterial inner membrane mimic pure POPG in PBS buffer at pH 7.4 incubated for 5 hrs in presence of 1,1-bis({6-[N'-(cyclopropylmethyl)carbamimidamido]hexyl})-3-{8-[N'-(cyclopropylmethyl)carbamimidamido]octyl}-3-octylurea by PAMPA based UV-Vis spectrophotometric analysis.
Series [35] can be described thus: Apparent permeability of the compound across bacterial inner membrane mimic POPE/POPG (6:4) in PBS buffer at pH 7.4 incubated for 5 hrs in presence of 1,3-bis(8-carbamimidamidooctyl)-1,3-bis({8-[N'-(cyclopropylmethyl)carbamimidamido]octyl})urea by PAMPA based UV-Vis spectrophotometric analysis.
Series [36] can be described thus: Apparent permeability of the compound across bacterial inner membrane mimic PC-phospholipids in PBS buffer at pH 7.4 incubated for 5 hrs in presence of 1,3-bis(8-carbamimidamidooctyl)-1,3-bis({8-[N'-(cyclopropylmethyl)carbamimidamido]octyl})urea by PAMPA based UV-Vis spectrophotometric analysis.

Consider two molecules from ChEMBL document CHEMBL5154741, “Antibacterial alkylguanidino ureas: Molecular simplification approach, searching for membrane-based MoA” (Eur J Med Chem, 2022).

For `Cn1c(=O)c2c(ncn2C)n(C)c1=O` [CAFFEINE], the R% in series [1] is 16.7%; in series [2], 8.1%; in series [3], 12.6%; in series [4], 16.5%; in [5], 13.4%; in [6], 17.5%. The R% in series [7] was determined as 4.5%; in [8], 12.8%; in series [9], 14.7%; in series [10], 3.3%; in series [11] it was 14.6%; in series [12] it was 19%. The R% in series [13] is given as 17.1%; in series [14], 15.8%; in [15], 12.6%; in series [16], 0%; in series [17] it was 13.5%; in series [18] it was 3.2%.
Broadly, the Papp is a coefficient for how fast a substance crosses the barrier. In the case of `O=C(N[C@H](CO)[C@H](O)c1ccc([N+](=O)[O-])cc1)C(Cl)Cl` [CHLORAMPHENICOL], the Papp at 5 h in series [19] is 0.54 ×10⁻⁶ cm/s; in series [20], 0.06 ×10⁻⁶ cm/s; in [21] it was 4.67 ×10⁻⁶ cm/s; in [22] it was 3.78 ×10⁻⁶ cm/s; in series [23] it was 6.11 ×10⁻⁶ cm/s; in series [24] it was 6.98 ×10⁻⁶ cm/s. For the same molecule, the Papp at 5 h in series [25] worked out at 1.12 ×10⁻⁶ cm/s; in [26], 3.24 ×10⁻⁶ cm/s; in series [27], 2.18 ×10⁻⁶ cm/s; in [28] it was 8.73 ×10⁻⁶ cm/s; in series [29] it was 3.14 ×10⁻⁶ cm/s; in [30] it was 0.08 ×10⁻⁶ cm/s. Further, the Papp at 5 h came to 1.67 ×10⁻⁶ cm/s in series [31]; 0.04 ×10⁻⁶ cm/s in series [32]; 6.64 ×10⁻⁶ cm/s in series [33]; 3.39 ×10⁻⁶ cm/s in series [34]; 1.39 ×10⁻⁶ cm/s in series [35]; 6.12 ×10⁻⁶ cm/s in series [36].
